From US8586613B2, “Pyridinium and quinolinium derivatives” (Universidad de Granada, priority 2004, dated 2013)
Like-named read-outs stand apart in the source and are kept apart here.

Experiments:
HT-29 cells = assay: HT-29 cell proliferation assay (Crystal Violet); type: cell-based, human; details: six days of treatment
Experimental: The HT-29 cells were seeded in 24-well plates (35×10^3 cells/well) and were incubated for 24 hours. Then the cells were treated with different concentrations of ChoK inhibitors in the usual culture medium. Three days later, the wells were aspirated and both fresh medium and more amount of drug were added, and the cells were maintained for three more days. The quantification of the remaining cells in each well was carried out by means of the Crystal Violet method [Gillies, R. J., Didier, N., Denton, M. Anal. Biochem. 159, 109-113 (1986)], with some modifications [Hernández-Alcoceba, R., Saniger, L., Campos, J., Núñez, M. C., Khaless, F., Gallo, M. Á., Espinosa, A., Lacal, J. C. Oncogene, 15, 2289-2301 (1997)]. Briefly, the cells were washed with TD buffer and fixed with 1% glutaraldehyde for 15 minutes. After washing again with TD, the cell nuclei were coloured with 0.1% Crystal Violet for at least 30 minutes and washed three times with distilled water. The adsorbed colouring was resuspended in 10% acetic acid and the absorbance at 595 nm was determined in a spectrometer. […] This value determined by iterative curve adjustment. Two values are determined for each point of the curve, the experiment was repeated two or three times and the mean values were estimated. In the few cases in which the two values differed more than 50%, a third experiment was carried out to determine the real value. The IC50 value as a potency measurement is used to relate the biological activity of the compounds with their chemical structure.

Human ChoK = molecular target: T1, Human ChoK (Homo sapiens, UniProt P35790); assay: Ex vivo assay of the activity of human ChoK (recombinant choline kinase expressed in E. coli); type: biochemical
T1 construct: made in house; host or cells: E. coli
T1 sequence (P35790 whole entry): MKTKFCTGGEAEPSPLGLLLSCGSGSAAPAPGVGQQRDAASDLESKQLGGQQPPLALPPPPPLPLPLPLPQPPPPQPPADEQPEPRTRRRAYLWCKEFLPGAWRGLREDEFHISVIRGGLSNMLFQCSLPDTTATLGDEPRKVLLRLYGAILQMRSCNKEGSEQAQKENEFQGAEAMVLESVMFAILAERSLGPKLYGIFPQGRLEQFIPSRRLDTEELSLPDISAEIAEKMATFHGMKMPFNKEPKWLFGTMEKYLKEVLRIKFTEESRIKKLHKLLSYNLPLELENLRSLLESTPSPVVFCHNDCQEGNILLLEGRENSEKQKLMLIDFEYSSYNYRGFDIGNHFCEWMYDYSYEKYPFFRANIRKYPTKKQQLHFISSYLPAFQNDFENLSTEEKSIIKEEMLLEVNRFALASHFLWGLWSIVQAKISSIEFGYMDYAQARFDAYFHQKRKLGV
Experimental: Recombinant choline kinase expressed in E. coli in the buffer assay (100 mM Tris-HCl pH 8.0, 100 mM MgCl2, 10 mM ATP and 200 μM of choline in the presence of methyl[^14C]-choline chloride (50-60 μCi/mmol)) was used for the ex vivo assays. […] The samples were washed with diethyl ether saturated with water and were lyophilized. The hydrophilic choline derivatives were resolved in thin layer chromatography plates according to a described process [Ramírez, A., Penalva, V., Lucas, L., Lacal, J. C.

[1] = recombinant human ChoK, 37° C., 30 minutes

Compound | IC50 (HT-29 cells) [µM] | IC50 (Human ChoK; [1]) [µM] | IC50 (HT-29 cells; Homo sapiens, 144 h) [µM] | IC50 (Human ChoK) [µM]
1,1′-(benzene-1,3-diylmethylene)bis[4-(4-chloro-N-methylanilino)pyridinium]dibromide [Compound 1] | 3.3 | 5.7 | – | –
1,1′-(biphenyl-3,3′-diylmethylene)bis[4-(3,5-dichloro-N-methylanilino)pyridinium]dibromide [Compound 4] | 1.8 | – | – | –
CN(c1ccccc1)c1cc[n+](Cc2cccc(-c3cccc(C[n+]4ccc(N(C)c5ccccc5)cc4)c3)c2)cc1.[Br-].[Br-] [Compound 2, 1,1′-(biphenyl-3,3′-diylmethylene)bis[4-(N-methylanilino)pyridinium]dibromide] | 2.2 | 0.42 | – | –
CN(c1ccc(Cl)cc1)c1cc[n+](Cc2cccc(-c3cccc(C[n+]4ccc(N(C)c5ccc(Cl)cc5)c5ccccc54)c3)c2)c2ccccc12.[Br-].[Br-] [Compound 5, 1,1′-(biphenyl-3,3′-diylmethylene)bis[4-(4-chloro-N-methylanilino)quinolinium]dibromide] | 1.6 | – | – | –
CN(c1ccc(Cl)cc1)c1cc[n+](Cc2cccc(-c3cccc(C[n+]4ccc(N(C)c5ccc(Cl)cc5)c5ccc(Cl)cc54)c3)c2)c2cc(Cl)ccc12 [Compound 6, 1,1′-(biphenyl-3,3′-diylmethylene)bis[4-(4-chloro-N-methylanilino)-7-chloroquinolinium]dibromide] | – | 5.7 | 1.9 | –
CN(c1ccc(Cl)cc1)c1cc[n+](Cc2ccc(-c3ccc(C[n+]4ccc(N(C)c5ccc(Cl)cc5)c5ccc(Cl)cc54)cc3)cc2)c2cc(Cl)ccc12 [Compound 8, 1,1′-(biphenyl-4,4′-diylmethylene)bis[4-(4-chloro-N-methylanilino)-7-chloroquinolinium]dibromide] | – | 11.4 | 1.2 | –
CN(c1ccc(Cl)cc1)c1cc[n+](Cc2ccc(CCc3ccc(C[n+]4ccc(N(C)c5ccc(Cl)cc5)c5ccccc54)cc3)cc2)c2ccccc12 [Compound 9, 1,1′-[ethylenebis(benzene-1,4-diylmethylene)]bis[4-(4-chloro-N-methylanilino)quinolinium]dibromide] | – | 4.8 | 0.7 | –
CN(c1ccc(Cl)cc1)c1cc[n+](Cc2ccc(CCc3ccc(C[n+]4ccc(N(C)c5ccc(Cl)cc5)c5ccc(Cl)cc54)cc3)cc2)c2cc(Cl)ccc12 [Compound 10, 1,1′-[ethylenebis(benzene-1,4-diylmethylene)]bis[4-(4-chloro-N-methylanilino)-7-chloroquinolinium]dibromide] | – | 5.7 | 0.8 | –
c1cc(C[n+]2ccc(N3CCCC3)cc2)cc(-c2cccc(C[n+]3ccc(N4CCCC4)cc3)c2)c1 [EC1, reference compound] | – | 5.8 | – | –
c1cc(C[n+]2ccc(N3CCCCC3)cc2)cc(-c2cccc(C[n+]3ccc(N4CCCCC4)cc3)c2)c1 [EC2, reference compound] | – | – | 1.6 | 1.9
CN(C)c1cc[n+](Cc2cccc(-c3cccc(C[n+]4ccc(N(C)C)c5ccc(Cl)cc54)c3)c2)c2cc(Cl)ccc12 [EC3, reference compound] | – | 9.6 | 0.7 | –
Clc1ccc2c(N3CCCC3)cc[n+](Cc3cccc(-c4cccc(C[n+]5ccc(N6CCCC6)c6ccc(Cl)cc65)c4)c3)c2c1 [EC4, reference compound] | – | 1.2 | 0.4 | –
Clc1ccc2c(N3CCCC3)cc[n+](Cc3ccc(CCc4ccc(C[n+]5ccc(N6CCCC6)c6ccc(Cl)cc65)cc4)cc3)c2c1 [EC5, reference compound] | – | 1 | 0.2 | –
CN(C)c1cc[n+](Cc2ccc(CCCc3ccc(C[n+]4ccc(N(C)C)cc4)cc3)cc2)cc1 [EC6, reference compound] | – | 22 | 2.5 | –
